From patent US9744181B2, “Compositions and methods for combination antiviral therapy” (priority 2003, dated 2017)
Counter-ions that a name gives are not always drawn.

What was measured:
HIV = settings: patients, once-a-day dose of 200 mg
[1] = combination tablet, six months at 40° C./75% RH; for loss in % label strength: with desiccant, significant defined as ≧5% degradation
HIV-1 = settings: in combination with recombinant soluble CD4 castanosperinine and recombinant interferon-α; cited from earlier work
[2] = system: normal human bone marrow progenitor cells; settings: AZT together with recombinant interferon-α; cited from earlier work
HIV replication = settings: in combination with PMPA, d4T, ddC, nelfinavir, ritonavir, and saquinavir; cited from earlier work

Nc1nc(=O)n([C@@H]2CS[C@H](CO)O2)cc1F (single isomer, unassigned) [Emtricitabine]
average reduction of viral load (HIV): 99%
loss in % label strength [1]: No significant loss

Cc1cn([C@H]2C[C@H](N=[N+]=[N-])[C@@H](CO)O2)c(=O)[nH]c1=O [AZT, 3′-azido, 3′-deoxythymidine]
synergy of antiviral activity in vitro (HIV-1): synergistic antiviral activity
cytotoxic effect [2]: increased cytotoxic effect

CC(C)(C)C(=O)OCOP(=O)(COCCn1cnc2c(N)ncnc21)OCOC(=O)C(C)(C)C [Adefovir dipivoxil]
synergy of inhibition of HIV replication (HIV replication): minor to moderate synergistic inhibition

CC(C)OC(=O)OCOP(=O)(CO[C@H](C)Cn1cnc2c(N)ncnc21)OCOC(=O)OC(C)C [Tenofovir disoproxil fumarate, 9-[(R)-2-[[bis[[(isopropoxycarbonyl)oxy]methoxy]phosphinyl]methoxy]propyl]adenine fumarate (1:1)]
increase in the total degradation products ([1]; packaged and stored with 3 grams of desiccant): 1.5%
loss in % label strength [1]: No significant loss
